Values of other authors as cited in publication PMC9160825, “Structural and Functional Characterization of a Novel Scorpion Toxin that Inhibits NaV1.8 via Interactions With the DI Voltage Sensor and DII Pore Module” (Frontiers in Pharmacology, 2022).

Legend:
[1] = tested on: DRG nociceptive sensory neurons
From the text: In addition to modifying activation and fast inactivation gating, NaTx36 modifies slow inactivation gating in OtNaV1.8 by substantially shifting the voltage dependence to hyperpolarized membrane potentials (Figure 5B). Slow inactivation differs from fast inactivation in voltage- and time-dependent properties. While fast inactivation inhibits NaV excitability within milliseconds of action potential firing, slow inactivation develops in response to prolonged membrane depolarization (tens of seconds) or a series of action potentials, inhibiting NaV excitability over longer timescales (seconds to ...

house mouse NaV1.8 = settings: ref Zhang and Bean, 2021
[2] = tested on: sodium channel DI voltage sensor; design: method as in Xiao et al., 2014; settings: ref Xiao et al., 2014

For `C=C(C)[C@@H]1CCC(C)=C[C@H]1c1c(O)cc(CCCCC)cc1O` [CBD, cannabidiol], the “repetitive action potential firing and DRG neuronal excitability” value ([1]; ref Zhang and Bean, 2021) is listed as “reduces repetitive action potential firing and DRG neuronal excitability” and the “inhibition of house mouse NaV1.8” value (house mouse NaV1.8) is listed as “inhibited house mouse NaV1.8 in a state-dependent manner”.

In the case of `COc1cc(CNC(=O)CCCC/C=C/C(C)C)ccc1O` [capsaicin], the “NaV1.8 TTX-R Na+ currents and action potential firing” value ([1]; sustained excitation of DRG membranes, ref Blair and Bean, 2003) is listed as “caused a decrease in NaV1.8 TTX-R Na^+ currents and action potential firing”.

In the case of ProTx-II: spider toxin, the “effect on gating pore currents via DI voltage sensor” value [2] is listed as “modify the voltage dependence of gating pore currents”.
